Experiments:
[1] = tested on: Ecol 35218; assay: Plate count of live bacteria after killing treatment; type: cell-based, E. coli
[2] = tested on: Paer 27853; assay: as above; type: cell-based, P. aeruginosa
[3] = tested on: Saur 12600; assay: as above; type: cell-based, S. aureus
[4] = tested on: Ecol 35218; assay: FISH detection of live and killed bacteria with or without protease digestion; type: cell-based, E. coli
[5] = tested on: Kpne 13882; assay: as above; type: cell-based, K. pneumoniae
[6] = tested on: Paer 27853; assay: as above; type: cell-based, P. aeruginosa
[7] = tested on: Saur 12600; assay: as above; type: cell-based, S. aureus
[8] = tested on: Kpne 13882; assay: Plate count of live bacteria after killing treatment
[9] = tested on: E. coli; assay: Protease-dependent bacterial growth inhibition in rapid blood culture (plating); type: cell-based; conditions: for Overall rate / Fold Growth: 6 hour run; for Fold Growth: over starting number
Method: Blood culture samples were treated with two different concentrations of protease to determine if protease used at a high concentration could produce inhibition of bacterial growth. Identification of a protease concentration dependent inhibitory effect on the growth rate of microbial cells is an important component of optimization of a rapid blood culture method. Growth of E. coli in simulated bacteremic blood cultures treated with a working protease concentration (0.2 mg/mL) and high protease concentration (20 mg/mL) was compared over a six (6) hour growth and digestion period.
A mock blood culture specimen was created by addition of 10 mL of blood to a BioMerieux BacT/Alert Standard Aerobic bottle. A 1.0 mL portion of this specimen was used for each condition. Each sample was treated with saponin to a final concentration of 4 mg/mL and SPS to a final concentration of 0.96 mg/mL. Samples were then spiked with E. coli bacteria to a final concentration of 1×10^2 cfu/mL. The samples were treated with a Pronase solution containing either 0.2 mg/mL or 20 mg/mL. Samples were incubated at 35° C. with agitation for 6 hours. A portion of each sample was removed for concentration determination at 2 hour time points during the incubation. The sampled bacteria were plated in 10-fold dilution series to determine the concentration of bacteria at each time point. Interval-by-interval growth rates, overall growth rate, and fold increase versus the starting concentration were determined using the calculated concentrations at each time point.

[10] = 0 hr, after gentamycin 100 micrograms per mL 1 hour or 80% ethanol
[11] = gentamycin 1 hour or 80% ethanol
[12] = 1 hour, with protease (0.2 mg/mL Pronase)
[13] = 1 hour, with protease (0.2 mg/mL Pronase), cells live or pre-killed as labelled
[14] = 4 hour, with protease (0.2 mg/mL Pronase)
[15] = 4 hour, with protease (0.2 mg/mL Pronase), cells live or pre-killed as labelled
[16] = High protease (20 mg/mL Pronase)
[17] = Low protease (0.2 mg/mL Pronase)

**Q.** Which results are given for gentamycin?
**A.** Conc of live bacteria by plating [1, 10]: 10 cfu/mL; Killing by plating, in words [1, 11]: substantially killed; Conc of live bacteria by plating [2, 10]: 20 cfu/mL; Killing by plating, in words [2, 11]: substantially killed; Conc of live bacteria by plating [3, 10]: 2 × 10^3 cfu/mL; Killing by plating, in words [3, 11]: a significant number of S. aureus remained alive; FISH Conc ([4]; 1 hour, no protease): 8.8 × 10^6 cells/mL; Positive Detection? ([4]; 1 hour, no protease): Yes (A detection threshold of 1×10^4 cells per mL was used as the threshold for a positive call in the FISH assay); Positive Detection? [4, 12]: Yes (A detection threshold of 1×10^4 cells per mL was used as the threshold for a positive call in the FISH assay); FISH Conc [4, 13]: 5.5 × 10^5 cells/mL; FISH Conc ([4]; 4 hour, no protease): 4.8 × 10^5 cells/mL; Positive Detection? ([4]; 4 hour, no protease): Yes (A detection threshold of 1×10^4 cells per mL was used as the threshold for a positive call in the FISH assay); Positive Detection? [4, 14]: Yes (A detection threshold of 1×10^4 cells per mL was used as the threshold for a positive call in the FISH assay); FISH Conc [4, 15]: 4.5 × 10^5 cells/mL; FISH Conc ([5]; 1 hour, no protease): 1.7 × 10^5 cells/mL; Positive Detection? ([5]; 1 hour, no protease): Yes (A detection threshold of 1×10^4 cells per mL was used as the threshold for a positive call in the FISH assay); Positive Detection? [5, 12]: Yes (A detection threshold of 1×10^4 cells per mL was used as the threshold for a positive call in the FISH assay); FISH Conc [5, 13]: 7.7 × 10^4 cells/mL; FISH Conc ([5]; 4 hour, no protease): <1 × 10^3 cells/mL; Positive Detection? ([5]; 4 hour, no protease): No (A detection threshold of 1×10^4 cells per mL was used as the threshold for a positive call in the FISH assay); Positive Detection? [5, 14]: Yes (A detection threshold of 1×10^4 cells per mL was used as the threshold for a positive call in the FISH assay); FISH Conc [5, 15]: 1.7 × 10^4 cells/mL; FISH Conc ([6]; 1 hour, no protease): 3.7 × 10^5 cells/mL; Positive Detection? ([6]; 1 hour, no protease): Yes (A detection threshold of 1×10^4 cells per mL was used as the threshold for a positive call in the FISH assay); Positive Detection? [6, 12]: Yes (A detection threshold of 1×10^4 cells per mL was used as the threshold for a positive call in the FISH assay); FISH Conc [6, 13]: 5.3 × 10^4 cells/mL; FISH Conc ([6]; 4 hour, no protease): 3.0 × 10^5 cells/mL; Positive Detection? ([6]; 4 hour, no protease): Yes (A detection threshold of 1×10^4 cells per mL was used as the threshold for a positive call in the FISH assay); Positive Detection? [6, 14]: No (A detection threshold of 1×10^4 cells per mL was used as the threshold for a positive call in the FISH assay); FISH Conc [6, 15]: 6.7 × 10^3 cells/mL; FISH Conc ([7]; 1 hour, no protease): 1.4 × 10^5 cells/mL; Positive Detection? ([7]; 1 hour, no protease): Yes (A detection threshold of 1×10^4 cells per mL was used as the threshold for a positive call in the FISH assay); Positive Detection? [7, 12]: Yes (A detection threshold of 1×10^4 cells per mL was used as the threshold for a positive call in the FISH assay); FISH Conc [7, 13]: 1.1 × 10^5 cells/mL; FISH Conc ([7]; 4 hour, no protease): 3.0 × 10^4 cells/mL; Positive Detection? ([7]; 4 hour, no protease): Yes (A detection threshold of 1×10^4 cells per mL was used as the threshold for a positive call in the FISH assay); Positive Detection? [7, 14]: Yes (A detection threshold of 1×10^4 cells per mL was used as the threshold for a positive call in the FISH assay); FISH Conc [7, 15]: 3.0 × 10^4 cells/mL; Conc of live bacteria by plating [8, 10]: 60 cfu/mL; Killing by plating, in words [8, 11]: substantially killed

**Q.** How did the “lower overall increase with the higher concentration of protease” value ([9]; 20 mg/mL versus 0.2 mg/mL, 6 hour incubation) turn out when Pronase [Protease] was run?
**A.** The value was “approximately 8.5 fold”.

**Q.** And the “Calculated growth rate 0→2 Hours” value [9, 16]?
**A.** The value was 0.70.

**Q.** What about the “Calculated growth rate 2→4 Hours” value [9, 16] of the same substance?
**A.** Its value is 2.74.

**Q.** What about the “Calculated growth rate 4→6 Hours” value [9, 16] of the same substance?
**A.** Its value is 2.22.

**Q.** And the Conc of bacteria ([9]; High protease (20 mg/mL Pronase), 2 hr)?
**A.** Its Conc of bacteria is 2.7 × 10^2 cfu/mL.

**Q.** And the Conc of bacteria ([9]; High protease (20 mg/mL Pronase), 4 hr)?
**A.** Its Conc of bacteria is 1.2 × 10^4 cfu/mL.

**Q.** What about the Overall rate [9, 16] of the same substance?
**A.** The Overall rate was 1.89.

**Q.** What about the Conc of bacteria ([9]; High protease (20 mg/mL Pronase), 6 hr) of the same substance?
**A.** Its Conc of bacteria is 2.6 × 10^5 cfu/mL.

**Q.** And the “Fold Growth” value [9, 16]?
**A.** Its value is 2,600.

**Q.** What about the “Calculated growth rate 0→2 Hours” value [9, 17] of the same substance?
**A.** The value was 0.60.

**Q.** What about the “Calculated growth rate 2→4 Hours” value [9, 17] of the same substance?
**A.** The value was 2.96.

**Q.** And the “Calculated growth rate 4→6 Hours” value [9, 17]?
**A.** The value was 3.65.

**Q.** What about the Conc of bacteria ([9]; Low protease (0.2 mg/mL Pronase), 2 hr) of the same substance?
**A.** Its Conc of bacteria is 2.3 × 10^2 cfu/mL.

**Q.** What about the Conc of bacteria ([9]; Low protease (0.2 mg/mL Pronase), 4 hr) of the same substance?
**A.** The Conc of bacteria was 1.4 × 10^4 cfu/mL.

**Q.** What about the Overall rate [9, 17] of the same substance?
**A.** The Overall rate was 2.40.

**Q.** And the Conc of bacteria ([9]; Low protease (0.2 mg/mL Pronase), 6 hr)?
**A.** The Conc of bacteria was 2.2 × 10^6 cfu/mL.

**Q.** What about the “Fold Growth” value [9, 17] of the same substance?
**A.** The value was 22,000.

**Q.** What about the “Positive Detection?” value [4, 12] of the same substance?
**A.** Its value is “Yes (A detection threshold of 1×10^4 cells per mL was used as the threshold for a positive call in the FISH assay)”.

**Q.** What about the “FISH Conc” value [4, 13] of the same substance?
**A.** The value was 2.3 × 10^6 cells/mL.

**Q.** And the “Positive Detection?” value [4, 14]?
**A.** Its value is “Yes (A detection threshold of 1×10^4 cells per mL was used as the threshold for a positive call in the FISH assay)”.

**Q.** What about the “FISH Conc” value [4, 15] of the same substance?
**A.** The value was 1.8 × 10^7 cells/mL.

**Q.** What about the “Positive Detection?” value [5, 12] of the same substance?
**A.** The value was “Yes (A detection threshold of 1×10^4 cells per mL was used as the threshold for a positive call in the FISH assay)”.

**Q.** What about the “FISH Conc” value [5, 13] of the same substance?
**A.** The value was 7.7 × 10^4 cells/mL.

**Q.** What about the “Positive Detection?” value [5, 14] of the same substance?
**A.** The value was “Yes (A detection threshold of 1×10^4 cells per mL was used as the threshold for a positive call in the FISH assay)”.

**Q.** And the “FISH Conc” value [5, 15]?
**A.** The value was 4.3 × 10^6 cells/mL.

**Q.** And the “Positive Detection?” value [6, 12]?
**A.** Its value is “Yes (A detection threshold of 1×10^4 cells per mL was used as the threshold for a positive call in the FISH assay)”.

**Q.** What about the “FISH Conc” value [6, 13] of the same substance?
**A.** Its value is 9.0 × 10^4 cells/mL.

**Q.** And the “Positive Detection?” value [6, 14]?
**A.** Its value is “Yes (A detection threshold of 1×10^4 cells per mL was used as the threshold for a positive call in the FISH assay)”.

**Q.** What about the “FISH Conc” value [6, 15] of the same substance?
**A.** The value was 5.9 × 10^6 cells/mL.

**Q.** What about the “Positive Detection?” value [7, 12] of the same substance?
**A.** The value was “Yes (A detection threshold of 1×10^4 cells per mL was used as the threshold for a positive call in the FISH assay)”.

**Q.** And the “FISH Conc” value [7, 13]?
**A.** Its value is 1.6 × 10^6 cells/mL.

**Q.** And the “Positive Detection?” value [7, 14]?
**A.** Its value is “Yes (A detection threshold of 1×10^4 cells per mL was used as the threshold for a positive call in the FISH assay)”.

**Q.** And the “FISH Conc” value [7, 15]?
**A.** Its value is 4.2 × 10^7 cells/mL.

Source: US20150225762A1, “SAME-DAY BLOOD CULTURE WITH DIGITAL MICROSCOPY” (ACCELERATE DIAGNOSTICS, INC., priority 2012, published 2015)
